The target in data set [1] is T1, recombinant Nampt (Homo sapiens, UniProt P43490). The following applies: cited from earlier work.
For a further data set, the system named is 184A1. In words: MTT assay, 184A1 cells, 72 h. It is filed as cell-based. Particulars: read-out: IC50 (nM) ± SD (n) 184A1, 184A1 noncancerous Nampt-dependent human breast epithelium cells, n=4. (Tetrazolium assays rely on reduction of a dye to a coloured formazan, in cell work by metabolically active cells.)
Data set [2] concerns the target T1, recombinant Nampt. Nature of the data set: Recombinant Nampt inhibition assay. In kind it is biochemical. The following applies: read-out: IC50, inhibition of recombinant Nampt activity; colorimetric assay.
For data set [3] the following is noted: continuous intravenous infusion for 4 consecutive days, patients; cited from earlier work.

Results on three molecules are retold here after PMC5923274 (Drug Design, Development and Therapy, 2018).

Where two headings read alike, the source gives them in different places.

What is called IC50 is the concentration that inhibits the measured activity by half.

T1 sequence (P43490 whole entry): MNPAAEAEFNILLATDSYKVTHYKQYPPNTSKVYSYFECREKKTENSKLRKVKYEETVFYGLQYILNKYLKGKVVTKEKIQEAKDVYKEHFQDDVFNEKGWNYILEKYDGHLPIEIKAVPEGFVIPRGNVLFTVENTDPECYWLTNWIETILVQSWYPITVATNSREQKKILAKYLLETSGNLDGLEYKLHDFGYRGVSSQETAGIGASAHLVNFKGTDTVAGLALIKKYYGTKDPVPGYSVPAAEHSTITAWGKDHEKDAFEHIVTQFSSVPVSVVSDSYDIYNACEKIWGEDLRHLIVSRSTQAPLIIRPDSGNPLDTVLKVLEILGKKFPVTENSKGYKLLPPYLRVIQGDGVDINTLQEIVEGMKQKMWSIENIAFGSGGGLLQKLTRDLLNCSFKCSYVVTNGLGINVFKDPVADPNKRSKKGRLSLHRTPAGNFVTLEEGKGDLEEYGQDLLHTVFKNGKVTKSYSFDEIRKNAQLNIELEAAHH

On to “1-(4′-(trans-3″-(3‴-pyridyl)acrylamido)butyl)-1,7-dicarbadodecaborane [MC4-PPEA]”, for which, at recombinant Nampt [1] (read-out: IC50, inhibition of Nampt, previously reported), the IC50 is 4.2 nM. Further, the “fold higher Nampt inhibitory activity than FK866” value at recombinant Nampt [1] (relative to FK866) is ~ 100 fold.

“1-(hydroxymethyl)-7-(4′-(trans-3″-(3′″-pyridyl)acrylamido)butyl)-1,7-dicarbadodecaborane [hm-MC4-PPEA]”: the IC50 in the data set on 184A1 came out at 1.9 ± 0.4 nM; at recombinant Nampt [2], 6.8 nM.

`O=C(/C=C/c1cccnc1)NCCCCC1CCN(C(=O)c2ccccc2)CC1` [FK866]: in data set [3], the dose-limiting toxicity result was “thrombocytopenia”.
